Assay results published in patent US6156790A, “C-10 carbon-substituted artemisinin-like trioxane compounds having antimalarial, antiproliferative and antitumor activities” (priority 1997, dated 2000).

What was measured:
60 cell line panel = conditions: cell line panels of 60 lines; cited from earlier work
HL-60(TB) = assay: cells; conditions: Homo sapiens
[1] = stability of pyranosyl fluorides; format: physicochemical; conditions: after purification
Description: Coupling of either the α-fluoride or the β-fluoride VI with trimethylaluminum in the presence of boron trifluoride-etherate gave 10β-methyl derivative VII where n=1 and R=CH3 with almost complete stereoselectivity, thereby implicating a common oxygen-stabilized C-10 carbocation intermediate. The relative stereochemistry at carbons 9 and 10 was established by the characteristic ^1 H NMR chemical shifts and coupling constants of the methine hydrogen atoms at these positions (J9,10 =10-11 Hz for trans and J9,10 =5.6-6.7 Hz for cis). […] Several dimethyl aluminum acetylides, prepared from Me2 AlCl and the corresponding lithium acetylides, coupled smoothly to form exclusively the 10β-acetylenic derivatives. Di- and tri-methoxylated benzenes and heteroaromatic N-methylpyrrole and furan coupled to produce exclusively, in stereochemical contrast, the 10α-oriented derivatives. Apparently, relatively small nucleophiles approach the intermediate cation from the β-face of the molecule, whereas relatively large aryl and heteroaryl nucleophiles approach from the α-face (i.e. directed by and trans to the C-9 methyl group). Coupling of pyranosyl fluoride VI with N-methylpyrrole proceeded equally well on 400 mg scale as on 20 mg scale, and larger scale executions of this and of the other coupling reactions reported here are not expected to be a problem.

[2] = system: murine keratinocyte cell line PE; assay: growth inhibition of PE cells (MTT assay); format: cell-based; conditions: 100 nanomolar
Description: To determine the inhibitory effect of the compositions of the present invention on cell proliferation, screening assays were performed on a murine keratinocyte cell line PE. Cell line PE was chosen for its particular sensitivity to the induction of ornithine decarboxylase (ODC) activity by the extensively characterized tumor promoter TPA. […] PE cell culture medium consisted of Eagle's minimal essential medium without calcium chloride (Whittaker Bioproducts, Walkersville, Mass.) supplemented with 8% chelexed fetal calf serum and 1% antibiotic-antimycotic (Gibco BRL) and the addition of CaCl2 to 0.05 mM Ca^++.
Growth Inhibition. Growth curves, shown in FIGS. 1 and 2, for PE cells treated with calcitriol and the C-10 carbon-substituted dimers 21, 22, 26, 27, and 28 generated by assay for the reduction of the tetrazolium-based compound MTT, see Charmichael, et al., Cancer Res., 47:936-942 (1987). […] PE cells were seeded at a density of 5,000 cells/well in 50 μL of medium into 96-well microtiter plates. Twelve hours later, the medium was removed, and cells were treated with 100 μL of fresh medium into which the appropriate amount of calcitrol or analog dissolved in dimethyl sulfoxide (DMSO) had been added, with the concentration of DMSO held constant at 0.1%. […] At 24-hour intervals following the initial treatment of the cells with compounds, 0.1 mg (50 μL of a 2 mg/mL solution) of MTT was added to each well. After 4 hours, the MTT was removed and DMSO added to dissolve the blue formazan dye. Using a microtiter plate reader, the A505 was then determined and cell number calculated from blank-subtracted absorbance values.

OVCAR-4 = assay: NCI 60 cell line screen (SRB), ovarian cancer; format: cell-based; conditions: Homo sapiens, read-out: Log10 GI50 (converted)

For `C[C@@H]1CC[C@H]2[C@@H](C)C(=O)O[C@@H]3O[C@@]4(C)CC[C@@H]1[C@]32OO4` [Artemisinin], the anticancer activity (60 cell line panel) is listed as “very little anticancer activity”, the GI50 (HL-60(TB); HL-60, read-out: Log10 GI50 (converted)) is listed as 55 µM and the CC50 (HL-60(TB); HL-60, read-out: Log10 LC50 (converted)) is listed as greater than 100 µM. It also gave an IC (TGI) (HL-60(TB); HL-60, read-out: Log10 TGI) of 100 µM.
For `C[C@H]1[C@@H](F)O[C@@H]2O[C@@]3(C)CC[C@H]4[C@H](C)CC[C@@H]1[C@@]24OO3` [Compound VI, 10β-Fluorodeoxoartemisinin], the stability of solid [1] was “stable crystalline solid”.
With `C[C@H]1[C@@H](CC(=O)c2ccc(C(=O)C[C@H]3O[C@@H]4O[C@@]5(C)CC[C@H]6[C@H](C)CC[C@@H]([C@H]3C)[C@@]46OO5)cc2)O[C@@H]2O[C@@]3(C)CC[C@H]4[C@H](C)CC[C@@H]1[C@@]24OO3` [Dimer 21] the “antiproliferative activity compared with calcitriol” value [2] was “at least as antiproliferative as calcitrol” and the GI50 (OVCAR-4) was 1.58 µM.
